Source: patent US20230085307A1, “PYRIDAZINONE COMPOUND AND HERBICIDE” (NISSAN CHEMICAL CORPORATION, priority 2019, published 2023)

How the values were obtained:
[1] = test system: redroot pigweed; experiment: Test Example 5: herbicidal effect by foliage application, plastic box (Table 20, symbol N); type: in vivo, redroot pigweed (Amaranthus retroflexus); details: foliage application, AAH 320 g/ha, evaluated three weeks after application
Method in brief: (§1)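 Plants sown in sterilized diluvial soil and grown 14 days in a greenhouse at 25° C to 30° C, then sprayed on the foliage with the compound's emulsion diluted in water to a predetermined herbicide amount. Injury to weeds and crops scored three weeks after application on a visual rating scale.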

[2] = test system: late watergrass; experiment: Test Example 1: herbicidal activity, application before weed generation under submerged conditions (Table 16, symbol A); type: in vivo, late watergrass (Echinochloa oryzicola); details: 320 g/ha applied herbicide
Method in brief: (§2)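 Submerged Wagner pots (alluvial soil, 4 cm water) sown with weed seeds and planted with 2.5-leaf rice seedlings; emulsifiable concentrate diluted in water applied to water surface on sowing day. Held in greenhouse at 25-30 °C; injury scored 0-5 by herbicidal rate after three weeks.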

[3] = test system: wild oat; experiment: Test Example 5: herbicidal effect by foliage application, plastic box (Table 20, symbol I); type: in vivo, wild oat (Avena fatua); details: foliage application, AAH 320 g/ha, evaluated three weeks after application
Method in brief: as §1

[4] = test system: windgrass; experiment: Test Example 4: herbicidal effect by soil treatment (Table 19, symbol L); type: in vivo, windgrass (Apera spica-venti); details: amount of applied herbicide 320 g/ha
Method in brief: (§3)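 Seeds were sown in sterilized diluvial soil and covered with about 1.5 cm of soil. An emulsion formulation diluted with water to a predetermined herbicide amount was sprayed evenly onto the soil surface. Plants grew in a greenhouse at 25° C. to 30° C., and the effect was scored three weeks after application using criteria from an earlier test.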

[5] = test system: persian speedwell; experiment: Test Example 5: herbicidal effect by foliage application, plastic box (Table 20, symbol R); type: in vivo, Persian speedwell (Veronica persica); details: foliage application, AAH 320 g/ha, evaluated three weeks after application
Method in brief: as §1

[6] = test system: Italian ryegrass; experiment: Test Example 4: herbicidal effect by soil treatment (Table 19, symbol K); type: in vivo, Italian ryegrass (Lolium multiflorum); details: amount of applied herbicide 320 g/ha
Method in brief: as §3

[7] = test system: southern crabgrass; experiment: Test Example 4: herbicidal effect by soil treatment (Table 19, symbol F); type: in vivo, southern crabgrass (Digitaria ciliaris); details: amount of applied herbicide 320 g/ha
Method in brief: as §3

[8] = test system: wild oat; experiment: Test Example 4: herbicidal effect by soil treatment (Table 19, symbol I); type: in vivo, wild oat (Avena fatua); details: amount of applied herbicide 320 g/ha
Method in brief: as §3

[9] = test system: blackgrass; experiment: Test Example 5: herbicidal effect by foliage application, plastic box (Table 20, symbol J); type: in vivo, blackgrass (Alopecurus myosuroides); details: foliage application, AAH 320 g/ha, evaluated three weeks after application
Method in brief: as §1

[10] = test system: redroot pigweed; experiment: Test Example 4: herbicidal effect by soil treatment (Table 19, symbol N); type: in vivo, redroot pigweed (Amaranthus retroflexus); details: amount of applied herbicide 320 g/ha
Method in brief: as §3

[11] = test system: oval-leafed pondweed; experiment: Test Example 1: herbicidal activity, application before weed generation under submerged conditions (Table 16, symbol C); type: in vivo, oval-leafed pondweed (Monochoria vaginalis); details: 320 g/ha applied herbicide
Method in brief: as §2

[12] = test system: barnyard grass; experiment: Test Example 4: herbicidal effect by soil treatment (Table 19, symbol H); type: in vivo, barnyard grass (Echinochloa crus-galli); details: amount of applied herbicide 320 g/ha
Method in brief: as §3

[13] = test system: lambsquarters; experiment: Test Example 5: herbicidal effect by foliage application, plastic box (Table 20, symbol O); type: in vivo, lambsquarters (Chenopodium album); details: foliage application, AAH 320 g/ha, evaluated three weeks after application
Method in brief: as §1

[14] = test system: green foxtail; experiment: Test Example 5: herbicidal effect by foliage application, plastic box (Table 20, symbol G); type: in vivo, green foxtail (Setaria viridis); details: foliage application, AAH 320 g/ha, evaluated three weeks after application
Method in brief: as §1

[15] = test system: velvetleaf; experiment: Test Example 5: herbicidal effect by foliage application, plastic box (Table 20, symbol M); type: in vivo, velvetleaf (Abutilon theophrasti); details: foliage application, AAH 320 g/ha, evaluated three weeks after application
Method in brief: as §1

[16] = test system: lambsquarters; experiment: Test Example 4: herbicidal effect by soil treatment (Table 19, symbol O); type: in vivo, lambsquarters (Chenopodium album); details: amount of applied herbicide 320 g/ha
Method in brief: as §3

[17] = test system: blackgrass; experiment: Test Example 4: herbicidal effect by soil treatment (Table 19, symbol J); type: in vivo, blackgrass (Alopecurus myosuroides); details: amount of applied herbicide 320 g/ha
Method in brief: as §3

[18] = test system: windgrass; experiment: Test Example 5: herbicidal effect by foliage application, plastic box (Table 20, symbol L); type: in vivo, windgrass (Apera spica-venti); details: foliage application, AAH 320 g/ha, evaluated three weeks after application
Method in brief: as §1

[19] = test system: chickweed; experiment: Test Example 4: herbicidal effect by soil treatment (Table 19, symbol P); type: in vivo, common chickweed (Stellaria media); details: amount of applied herbicide 320 g/ha
Method in brief: as §3

[20] = test system: Italian ryegrass; experiment: Test Example 5: herbicidal effect by foliage application, plastic box (Table 20, symbol K); type: in vivo, Italian ryegrass (Lolium multiflorum); details: foliage application, AAH 320 g/ha, evaluated three weeks after application
Method in brief: as §1

[21] = test system: barnyard grass; experiment: Test Example 3: herbicidal effect by foliage application, Wagner pot (Table 18, symbol H); type: in vivo, barnyard grass (Echinochloa crus-galli); details: amount of applied herbicide 320 g/ha
Method in brief: (§4)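 Plants were sown in alluvial soil held under 0.1–0.5 cm standing water and grown 14 days in a greenhouse at 25–30 °C. An emulsifiable formulation, water-diluted to the set dose, was then sprayed onto the foliage, and effects were scored three weeks later using previously defined criteria.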

[22] = test system: false cleavers; experiment: Test Example 4: herbicidal effect by soil treatment (Table 19, symbol Q); type: in vivo, false cleavers (Galium spurium); details: amount of applied herbicide 320 g/ha
Method in brief: as §3

[23] = test system: velvetleaf; experiment: Test Example 4: herbicidal effect by soil treatment (Table 19, symbol M); type: in vivo, velvetleaf (Abutilon theophrasti); details: amount of applied herbicide 320 g/ha
Method in brief: as §3

[24] = test system: Chinese sprangletop; experiment: Test Example 3: herbicidal effect by foliage application, Wagner pot (Table 18, symbol D); type: in vivo, chinese sprangletop (Leptochloa chinensis); details: amount of applied herbicide 320 g/ha
Method in brief: as §4

[25] = test system: chickweed; experiment: Test Example 5: herbicidal effect by foliage application, plastic box (Table 20, symbol P); type: in vivo, common chickweed (Stellaria media); details: foliage application, AAH 320 g/ha, evaluated three weeks after application
Method in brief: as §1

[26] = test system: rice flat sedge; experiment: Test Example 3: herbicidal effect by foliage application, Wagner pot (Table 18, symbol E); type: in vivo, rice flat sedge (Cyperus iria); details: amount of applied herbicide 320 g/ha
Method in brief: as §4

[27] = test system: green foxtail; experiment: Test Example 4: herbicidal effect by soil treatment (Table 19, symbol G); type: in vivo, green foxtail (Setaria viridis); details: amount of applied herbicide 320 g/ha
Method in brief: as §3

[28] = test system: southern crabgrass; experiment: Test Example 5: herbicidal effect by foliage application, plastic box (Table 20, symbol F); type: in vivo, southern crabgrass (Digitaria ciliaris); details: foliage application, AAH 320 g/ha, evaluated three weeks after application
Method in brief: as §1

[29] = test system: barnyard grass; experiment: Test Example 5: herbicidal effect by foliage application, plastic box (Table 20, symbol H); type: in vivo, barnyard grass (Echinochloa crus-galli); details: foliage application, AAH 320 g/ha, evaluated three weeks after application
Method in brief: as §1

[30] = test system: Japanese bulrush; experiment: Test Example 1: herbicidal activity, application before weed generation under submerged conditions (Table 16, symbol B); type: in vivo, Japanese bulrush (Schoenoplectus juncoides); details: 320 g/ha applied herbicide
Method in brief: as §2

Compound: Cc1nn(C)c(=O)c(-c2c(-c3ccc(CSCC(F)F)cc3)sc3ccc(F)cc23)c1O [2-330]
- N: redroot pigweed, herbicidal effect (criteria 0-5) [1]: 5 (Herbicidal rate of 90% or more (almost completely withered))
- Herbicidal effect on A: late watergrass (grade 0-5) [2]: 3 (Herbicidal rate of 40% or more and less than 70%)
- I: wild oat, herbicidal effect (criteria 0-5) [3]: 4 (Herbicidal rate of 70% or more and less than 90%)
- herbicidal effect on L: windgrass [4]: 0 (Herbicidal rate of 5% or less (almost no effect))
- R: persian speedwell, herbicidal effect (criteria 0-5) [5]: 5 (Herbicidal rate of 90% or more (almost completely withered))
- herbicidal effect on K: Italian ryegrass [6]: 4 (Herbicidal rate of 70% or more and less than 90%)
- herbicidal effect on F: southern crabgrass [7]: 3 (Herbicidal rate of 40% or more and less than 70%)
- herbicidal effect on I: wild oat [8]: 0 (Herbicidal rate of 5% or less (almost no effect))
- J: blackgrass, herbicidal effect (criteria 0-5) [9]: 4 (Herbicidal rate of 70% or more and less than 90%)
- herbicidal effect on N: redroot pigweed [10]: 4 (Herbicidal rate of 70% or more and less than 90%)
- Herbicidal effect on C: oval-leafed pondweed (grade 0-5) [11]: 0 (Herbicidal rate of 5% or less (almost no effect))
- herbicidal effect on H: barnyard grass [12]: 2 (Herbicidal rate of 20% or more and less than 40%)
- O: lambsquarters, herbicidal effect (criteria 0-5) [13]: 5 (Herbicidal rate of 90% or more (almost completely withered))
- G: green foxtail, herbicidal effect (criteria 0-5) [14]: 5 (Herbicidal rate of 90% or more (almost completely withered))
- M: velvetleaf, herbicidal effect (criteria 0-5) [15]: 5 (Herbicidal rate of 90% or more (almost completely withered))
- herbicidal effect on O: lambsquarters [16]: 3 (Herbicidal rate of 40% or more and less than 70%)
- herbicidal effect on J: blackgrass [17]: 0 (Herbicidal rate of 5% or less (almost no effect))
- L: windgrass, herbicidal effect (criteria 0-5) [18]: 5 (Herbicidal rate of 90% or more (almost completely withered))
- herbicidal effect on P: chickweed [19]: 0 (Herbicidal rate of 5% or less (almost no effect))
- K: Italian ryegrass, herbicidal effect (criteria 0-5) [20]: 5 (Herbicidal rate of 90% or more (almost completely withered))
- herbicidal effect on H: barnyard grass [21]: 5 (Herbicidal rate of 90% or more (almost completely withered))
- herbicidal effect on Q: false cleavers [22]: 0 (Herbicidal rate of 5% or less (almost no effect))
- herbicidal effect on M: velvetleaf [23]: 1 (Herbicidal rate of 5% or more and less than 20%)
- herbicidal effect on D: Chinese sprangletop [24]: 2 (Herbicidal rate of 20% or more and less than 40%)
- P: chickweed, herbicidal effect (criteria 0-5) [25]: 5 (Herbicidal rate of 90% or more (almost completely withered))
- herbicidal effect on E: rice flat sedge [26]: 4 (Herbicidal rate of 70% or more and less than 90%)
- herbicidal effect on G: green foxtail [27]: 1 (Herbicidal rate of 5% or more and less than 20%)
- F: southern crabgrass, herbicidal effect (criteria 0-5) [28]: 5 (Herbicidal rate of 90% or more (almost completely withered))
- H: barnyard grass, herbicidal effect (criteria 0-5) [29]: 5 (Herbicidal rate of 90% or more (almost completely withered))
- Herbicidal effect on B: Japanese bulrush (grade 0-5) [30]: 0 (Herbicidal rate of 5% or less (almost no effect))
